According to patent publication US10392630B2, “Plants having increased tolerance to herbicides” (BASF AGRO B.V., priority 2013, dated 2019):
Values joined by “and” are separate entries in the source; they are usually repeats but may differ in a detail not shown here. Equal values may be shown once.

How the values were obtained:
[1] = target: Amaranthus wildtype PPO (AMARE), PPO herbicide sensitive PPO2 (Amaranthus tuberculatus, UniProt Q0NZW9); assay: PPO enzyme assay, dose-response (fluorescence), wildtype Amaranthus PPO2; type: biochemical; conditions: IC50 (M), Table 3a
Amaranthus wildtype PPO (AMARE), PPO herbicide sensitive PPO2, sequence (Q0NZW9 entry or part of it): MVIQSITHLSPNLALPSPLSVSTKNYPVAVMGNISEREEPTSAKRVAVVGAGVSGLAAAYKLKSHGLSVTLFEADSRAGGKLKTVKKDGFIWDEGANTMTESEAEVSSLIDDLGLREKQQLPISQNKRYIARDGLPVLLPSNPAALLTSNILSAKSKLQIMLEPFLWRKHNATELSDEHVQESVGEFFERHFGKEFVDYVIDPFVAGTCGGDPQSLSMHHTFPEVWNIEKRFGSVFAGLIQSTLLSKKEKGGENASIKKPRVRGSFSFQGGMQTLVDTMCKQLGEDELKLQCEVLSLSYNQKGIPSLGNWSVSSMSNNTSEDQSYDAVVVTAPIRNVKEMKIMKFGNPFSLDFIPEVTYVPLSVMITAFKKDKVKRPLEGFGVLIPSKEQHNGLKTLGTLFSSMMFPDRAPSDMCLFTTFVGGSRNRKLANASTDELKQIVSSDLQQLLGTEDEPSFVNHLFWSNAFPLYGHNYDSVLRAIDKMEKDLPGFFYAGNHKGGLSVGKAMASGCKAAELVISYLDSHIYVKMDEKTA

[2] = tested on: transgenic soybean cv Jake cuttings; assay: Herbicide injury of transgenic soybean cuttings from T0 plants (Table 7, FIG. 4); type: in vivo, Glyceine max; conditions: V2 spray, 1 week after treatment
[3] = tested on: Alopecurus wildtype PPO (ALOMY), PPO herbicide sensitive PPO2, SEQ ID NO 2; assay: PPO enzyme assay, dose-response (fluorescence), wildtype Alopecurus PPO2; type: biochemical, Alopecurus myosuroides
[4] = tested on: transgenic T0 corn events; assay: Herbicide injury of transgenic T0 corn events, greenhouse spray (Table 6a); type: in vivo, Zea mays; conditions: 7 days after treatment
[5] = tested on: transgenic Arabidopsis thaliana plants; assay: Growth inhibition of transgenic Arabidopsis in 48-well plates, tolerance factor (Table 5, FIG. 2); type: in vivo; conditions: growth inhibition seven to ten days after seeding

## C#CCN1C(=O)C(F)(F)Oc2cc(F)c(-n3c(=O)n(C)c(=S)n(C)c3=O)cc21 [BAS 850H]
[1]; PPO herbicide sensitive PPO2 AC
  IC50: 5.96e-11 M
[1]; PPO herbicide sensitive PPO2 WC
  IC50: 5.17e-10 M
[2]; AlomyPPO1_R138A T0 cuttings, BAS 850H 25 g ai/ha
  Herbicide injury: 5 and 9
[2]; AlomyPPO1_R138A T0 cuttings, BAS 850H 50 g ai/ha
  Herbicide injury: 8 and 9
[2]; AlomyPPO1_R138A_Y420M T0 cuttings, BAS 850H 25 g ai/ha
  Herbicide injury: 7
[2]; AlomyPPO1_R138A_Y420M T0 cuttings, BAS 850H 50 g ai/ha
  Herbicide injury: 9
[2]; AlomyPPO1_R138L T0 cuttings, BAS 850H 25 g ai/ha
  Herbicide injury: 8 and 9 and 6
[2]; AlomyPPO1_R138L T0 cuttings, BAS 850H 50 g ai/ha
  Herbicide injury: 8 and 7 and 9
[2]; AlomyPPO1_Y420M T0 cuttings, BAS 850H 25 g ai/ha
  Herbicide injury: 6 and 5 and 9
[2]; AlomyPPO1_Y420M T0 cuttings, BAS 850H 50 g ai/ha
  Herbicide injury: 8 and 6 and 9
[2]; AlomyPPO1_Y420V T0 cuttings, BAS 850H 50 g ai/ha
  Herbicide injury: 9 and 7 and 8 and 5
[2]; AlomyPPO2 T0 cuttings, BAS 850H 25 g ai/ha
  Herbicide injury: 7 and 8 and 9
[2]; AlomyPPO2 T0 cuttings, BAS 850H 50 g ai/ha
  Herbicide injury: 9 and 8 and 7
[2]; AlomyPPO2_R137A T0 cuttings, BAS 850H 25 g ai/ha
  Herbicide injury: 7
[2]; AlomyPPO2_R137A T0 cuttings, BAS 850H 50 g ai/ha
  Herbicide injury: 7
[2]; AlomyPPO2_R137A_F438I T0 cuttings, BAS 850H 25 g ai/ha
  Herbicide injury: 4 and 5 and 7 and 8 and 6
[2]; AlomyPPO2_R137A_F438I T0 cuttings, BAS 850H 50 g ai/ha
  Herbicide injury: 5 and 6 and 7 and 8
[2]; AlomyPPO2_R137A_F438I T0 cuttings, BAS 850H 75 g ai/ha
  Herbicide injury: 5 and 8 and 7 and 9 and 6
[2]; AlomyPPO2_R137A_F438L T0 cuttings, BAS 850H 25 g ai/ha
  Herbicide injury: 6 and 9 and 8
[2]; AlomyPPO2_R137A_F438L T0 cuttings, BAS 850H 50 g ai/ha
  Herbicide injury: 7 and 9 and 5
[2]; AlomyPPO2_R137A_F438L T0 cuttings, BAS 850H 75 g ai/ha
  Herbicide injury: 7 and 9 and 5
[2]; AlomyPPO2_R137A_F438V T0 cuttings, BAS 850H 50 g ai/ha
  Herbicide injury: 4 and 5 and 6
[2]; AlomyPPO2_R137A_F438V T0 cuttings, BAS 850H 75 g ai/ha
  Herbicide injury: 5 and 7 and 6
[2]; AlomyPPO2_R137I T0 cuttings, BAS 850H 50 g ai/ha
  Herbicide injury: 6 and 5 and 7 and 9
[2]; AlomyPPO2_R137L_F438I T0 cuttings, BAS 850H 25 g ai/ha
  Herbicide injury: 8 and 9
[2]; AlomyPPO2_R137L_F438I T0 cuttings, BAS 850H 50 g ai/ha
  Herbicide injury: 9 and 8
[2]; AlomyPPO2_R137L_F438I T0 cuttings, BAS 850H 75 g ai/ha
  Herbicide injury: 9 and 8
[2]; AlomyPPO2_R137M_F438L T0 cuttings, BAS 850H 50 g ai/ha
  Herbicide injury: 7 and 4 and 5
[2]; AlomyPPO2_R137M_F438L T0 cuttings, BAS 850H 75 g ai/ha
  Herbicide injury: 7 and 6 and 5
[2]; Wild type cuttings, BAS 850H 25 g ai/ha
  Herbicide injury: 8
[2]; Wild type cuttings, BAS 850H 50 g ai/ha
  Herbicide injury: 9
[2]; Wild type cuttings, BAS 850H 75 g ai/ha
  Herbicide injury: 9
[3]; Table 3a, PPO herbicide sensitive PPO2, SEQ ID NO 2, ALOMY
  IC50: 0.0364 nM
[3]; Table 3b, SEQ ID NO 2, WT
  IC50: 0.0364 nM
[4]; T0 corn events AlomyPPO1_R138A, 50 g ai/ha + 1% (v/v) MSO at V2 stage
  Herbicide injury, 0 to 9 rating scale: 6
[4]; T0 corn events AlomyPPO1_R138A_Y420M, 50 g ai/ha + 1% (v/v) MSO at V2 stage
  Herbicide injury, 0 to 9 rating scale: 5 and 6
[4]; T0 corn events AlomyPPO1_R138A_Y420V, 50 g ai/ha + 1% (v/v) MSO at V2 stage
  Herbicide injury, 0 to 9 rating scale: 6 and 5
[4]; T0 corn events AlomyPPO1_R138A_Y420V, 100 g ai/ha + 1% (v/v) MSO at V2 stage
  Herbicide injury, 0 to 9 rating scale: 5
[4]; T0 corn events AlomyPPO1_Y420M, 50 g ai/ha + 1% (v/v) MSO at V2 stage
  Herbicide injury, 0 to 9 rating scale: 5 and 6
[4]; T0 corn events AlomyPPO1_Y420M, 100 g ai/ha + 1% (v/v) MSO at V2 stage
  Herbicide injury, 0 to 9 rating scale: 6
[4]; T0 corn events AlomyPPO1_Y420V, 50 g ai/ha + 1% (v/v) MSO at V2 stage
  Herbicide injury, 0 to 9 rating scale: 5 and 4 and 6
[4]; T0 corn events AlomyPPO1_Y420V, 100 g ai/ha + 1% (v/v) MSO at V2 stage
  Herbicide injury, 0 to 9 rating scale: 6
[4]; T0 corn events AlomyPPO2, 50 g ai/ha + 1% (v/v) MSO at V2 stage
  Herbicide injury, 0 to 9 rating scale: 6
[4]; T0 corn events AlomyPPO2, 75 g ai/ha + 1% (v/v) MSO at V2 stage
  Herbicide injury, 0 to 9 rating scale: 6
[4]; T0 corn events AlomyPPO2_R137A, 50 g ai/ha + 1% (v/v) MSO at V2 stage
  Herbicide injury, 0 to 9 rating scale: 5 and 4 and 6
[4]; T0 corn events AlomyPPO2_R137A, 75 g ai/ha + 1% (v/v) MSO at V2 stage
  Herbicide injury, 0 to 9 rating scale: 5
[4]; T0 corn events AlomyPPO2_R137A_F438I, 50 g ai/ha + 1% (v/v) MSO at V2 stage
  Herbicide injury, 0 to 9 rating scale: 4
[4]; T0 corn events AlomyPPO2_R137A_F438I, 100 g ai/ha + 1% (v/v) MSO at V2 stage
  Herbicide injury, 0 to 9 rating scale: 4 and 5
[4]; T0 corn events AlomyPPO2_R137A_F438M, 100 g ai/ha + 1% (v/v) MSO at V2 stage
  Herbicide injury, 0 to 9 rating scale: 5
[4]; T0 corn events AlomyPPO2_R137A_F438V, 100 g ai/ha + 1% (v/v) MSO at V2 stage
  Herbicide injury, 0 to 9 rating scale: 6
[4]; T0 corn events AlomyPPO2_R137I, 100 g ai/ha + 1% (v/v) MSO at V2 stage
  Herbicide injury, 0 to 9 rating scale: 4
[4]; T0 corn events AlomyPPO2_R137M_F438I, 75 g ai/ha + 1% (v/v) MSO at V2 stage
  Herbicide injury, 0 to 9 rating scale: 3 and 4
[4]; T0 corn events tp-SorbiPPO2::AlomyPPO2, 50 g ai/ha + 1% (v/v) MSO at V2 stage
  Herbicide injury, 0 to 9 rating scale: 5 and 6
[4]; T0 corn events tp-SorbiPPO2::AlomyPPO2, 100 g ai/ha + 1% (v/v) MSO at V2 stage
  Herbicide injury, 0 to 9 rating scale: 5
[4]; T0 corn events tp-SorbiPPO2::AlomyPPO2_F431V, 50 g ai/ha + 1% (v/v) MSO at V2 stage
  Herbicide injury, 0 to 9 rating scale: 4 and 5
[4]; T0 corn events tp-SorbiPPO2::AlomyPPO2_F431V, 100 g ai/ha + 1% (v/v) MSO at V2 stage
  Herbicide injury, 0 to 9 rating scale: 5 and 6
[4]; T0 corn events tp-SorbiPPO2::AlomyPPO2_R130A, 50 g ai/ha + 1% (v/v) MSO at V2 stage
  Herbicide injury, 0 to 9 rating scale: 4 and 5
[4]; T0 corn events tp-SorbiPPO2::AlomyPPO2_R130A_F431V, 100 g ai/ha + 1% (v/v) MSO at V2 stage
  Herbicide injury, 0 to 9 rating scale: 7 and 6
[4]; T0 corn events tp-SorbiPPO2::c-AlomyPPO2_R130A_F431M, 50 g ai/ha + 1% (v/v) MSO at V2 stage
  Herbicide injury, 0 to 9 rating scale: 4 and 5
[4]; T0 corn events tp-SorbiPPO2::c-AlomyPPO2_R130L_F431V, 50 g ai/ha + 1% (v/v) MSO at V2 stage
  Herbicide injury, 0 to 9 rating scale: 4 and 3 and 5
[4]; T0 corn events tp-ZeamaPPO2::AlomyPPO2, 50 g ai/ha + 1% (v/v) MSO at V2 stage
  Herbicide injury, 0 to 9 rating scale: 5 and 6
[4]; T0 corn events tp-ZeamaPPO2::AlomyPPO2_F431V, 50 g ai/ha + 1% (v/v) MSO at V2 stage
  Herbicide injury, 0 to 9 rating scale: 3 and 4 and 5
[4]; T0 corn events tp-ZeamaPPO2::AlomyPPO2_F431V, 100 g ai/ha + 1% (v/v) MSO at V2 stage
  Herbicide injury, 0 to 9 rating scale: 4
[4]; T0 corn events tp-ZeamaPPO2::AlomyPPO2_R130A, 50 g ai/ha + 1% (v/v) MSO at V2 stage
  Herbicide injury, 0 to 9 rating scale: 7 and 4 and 5 and 6
[4]; T0 corn events tp-ZeamaPPO2::AlomyPPO2_R130A, 100 g ai/ha + 1% (v/v) MSO at V2 stage
  Herbicide injury, 0 to 9 rating scale: 5
[4]; T0 corn events tp-ZeamaPPO2::AlomyPPO2_R130A_F431V, 50 g ai/ha + 1% (v/v) MSO at V2 stage
  Herbicide injury, 0 to 9 rating scale: 4 and 5
[4]; T0 corn events tp-ZeamaPPO2::c-AlomyPPO2_R130L_F431V, 50 g ai/ha + 1% (v/v) MSO at V2 stage
  Herbicide injury, 0 to 9 rating scale: 3 and 4 and 5 and 6
[4]; T0 corn events tp-ZeamaPPO2::c-AlomyPPO2_R130M_F431V, 50 g ai/ha + 1% (v/v) MSO at V2 stage
  Herbicide injury, 0 to 9 rating scale: 3 and 4 and 2
[4]; untransformed wild type corn, 50 g ai/ha + 1% (v/v) MSO at V2 stage
  Herbicide injury, 0 to 9 rating scale: 6
[4]; untransformed wild type corn, 75 g ai/ha + 1% (v/v) MSO at V2 stage
  Herbicide injury, 0 to 9 rating scale: 6
[4]; untransformed wild type corn, 100 g ai/ha + 1% (v/v) MSO at V2 stage
  Herbicide injury, 0 to 9 rating scale: 6
[5]; transgenic Arabidopsis Am_PPO2_F438I
  TF (Tolerance Factor), relative tolerance rate (non-transgenic = 1.0): >50
[5]; transgenic Arabidopsis Am_PPO2_R137A
  TF (Tolerance Factor), relative tolerance rate (non-transgenic = 1.0): >50
[5]; transgenic Arabidopsis Am_PPO2_R137A_F438I
  TF (Tolerance Factor), relative tolerance rate (non-transgenic = 1.0): >50
[5]; transgenic Arabidopsis Am_PPO2_R137A_F438L
  TF (Tolerance Factor), relative tolerance rate (non-transgenic = 1.0): >50
[5]; transgenic Arabidopsis Am_PPO2_R137A_F438M
  TF (Tolerance Factor), relative tolerance rate (non-transgenic = 1.0): >50
[5]; transgenic Arabidopsis Am_PPO2_R137A_F438V
  TF (Tolerance Factor), relative tolerance rate (non-transgenic = 1.0): >50
[5]; transgenic Arabidopsis Am_PPO2_R137I
  TF (Tolerance Factor), relative tolerance rate (non-transgenic = 1.0): >50
[5]; transgenic Arabidopsis Am_PPO2_R137L_F438I
  TF (Tolerance Factor), relative tolerance rate (non-transgenic = 1.0): >50
[5]; transgenic Arabidopsis Am_PPO2_R137L_F438L
  TF (Tolerance Factor), relative tolerance rate (non-transgenic = 1.0): >50
[5]; transgenic Arabidopsis Am_PPO2_R137L_F438M
  TF (Tolerance Factor), relative tolerance rate (non-transgenic = 1.0): >50
[5]; transgenic Arabidopsis Am_PPO2_R137M_F438I
  TF (Tolerance Factor), relative tolerance rate (non-transgenic = 1.0): >50
[5]; transgenic Arabidopsis Am_PPO2_R137M_F438L
  TF (Tolerance Factor), relative tolerance rate (non-transgenic = 1.0): >50
[5]; transgenic Arabidopsis Am_PPO2_R137M_F438M
  TF (Tolerance Factor), relative tolerance rate (non-transgenic = 1.0): >50
[5]; transgenic Arabidopsis Am_PPO2_R137M_F438V
  TF (Tolerance Factor), relative tolerance rate (non-transgenic = 1.0): >50
